Measured values as given in patent publication US20240336574A1 (LATIGO BIOTHERAPEUTICS, INC., priority 2021, published 2024).
pIC50: −log10 of the molar value. Where two headings read alike, the source gives them in different places.

Molecular target: T1, recombinant human NaV1.8 stably transfected HEK cells (Homo sapiens, UniProt Q9Y5Y9)
T1 construct: expressed in transfected cells; host or cells: HEK cells, stably transfected
Assay: Compound profiling on NaV1.8, human NaV1.8 cell line, SyncroPatch384PE automated patch clamp assay (Example 102, first set of compounds, Table 16)
Type: cell-based
Settings: human NaV1.8 HEK cells, Table 16 (first set of compounds)
In short: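 Automated whole-cell patch clamp on HEK cells precultured at 30 °C one day before recording; CsF-based internal, 140 mM NaCl external. 10-point curve, 20–0.001 μM final, 0.1% DMSO, 5 min exposure. IC50 for resting (P1, −120 mV hold) and inactivated (P2, after 10 s at −40 mV) block, normalized to 250 μM tetracaine and DMSO.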

[1] = inactivated state block (P2 measurement), read-out: P2IC50
[2] = resting state block (P1 measurement), read-out: P1IC50

T1 sequence (Q9Y5Y9 whole entry): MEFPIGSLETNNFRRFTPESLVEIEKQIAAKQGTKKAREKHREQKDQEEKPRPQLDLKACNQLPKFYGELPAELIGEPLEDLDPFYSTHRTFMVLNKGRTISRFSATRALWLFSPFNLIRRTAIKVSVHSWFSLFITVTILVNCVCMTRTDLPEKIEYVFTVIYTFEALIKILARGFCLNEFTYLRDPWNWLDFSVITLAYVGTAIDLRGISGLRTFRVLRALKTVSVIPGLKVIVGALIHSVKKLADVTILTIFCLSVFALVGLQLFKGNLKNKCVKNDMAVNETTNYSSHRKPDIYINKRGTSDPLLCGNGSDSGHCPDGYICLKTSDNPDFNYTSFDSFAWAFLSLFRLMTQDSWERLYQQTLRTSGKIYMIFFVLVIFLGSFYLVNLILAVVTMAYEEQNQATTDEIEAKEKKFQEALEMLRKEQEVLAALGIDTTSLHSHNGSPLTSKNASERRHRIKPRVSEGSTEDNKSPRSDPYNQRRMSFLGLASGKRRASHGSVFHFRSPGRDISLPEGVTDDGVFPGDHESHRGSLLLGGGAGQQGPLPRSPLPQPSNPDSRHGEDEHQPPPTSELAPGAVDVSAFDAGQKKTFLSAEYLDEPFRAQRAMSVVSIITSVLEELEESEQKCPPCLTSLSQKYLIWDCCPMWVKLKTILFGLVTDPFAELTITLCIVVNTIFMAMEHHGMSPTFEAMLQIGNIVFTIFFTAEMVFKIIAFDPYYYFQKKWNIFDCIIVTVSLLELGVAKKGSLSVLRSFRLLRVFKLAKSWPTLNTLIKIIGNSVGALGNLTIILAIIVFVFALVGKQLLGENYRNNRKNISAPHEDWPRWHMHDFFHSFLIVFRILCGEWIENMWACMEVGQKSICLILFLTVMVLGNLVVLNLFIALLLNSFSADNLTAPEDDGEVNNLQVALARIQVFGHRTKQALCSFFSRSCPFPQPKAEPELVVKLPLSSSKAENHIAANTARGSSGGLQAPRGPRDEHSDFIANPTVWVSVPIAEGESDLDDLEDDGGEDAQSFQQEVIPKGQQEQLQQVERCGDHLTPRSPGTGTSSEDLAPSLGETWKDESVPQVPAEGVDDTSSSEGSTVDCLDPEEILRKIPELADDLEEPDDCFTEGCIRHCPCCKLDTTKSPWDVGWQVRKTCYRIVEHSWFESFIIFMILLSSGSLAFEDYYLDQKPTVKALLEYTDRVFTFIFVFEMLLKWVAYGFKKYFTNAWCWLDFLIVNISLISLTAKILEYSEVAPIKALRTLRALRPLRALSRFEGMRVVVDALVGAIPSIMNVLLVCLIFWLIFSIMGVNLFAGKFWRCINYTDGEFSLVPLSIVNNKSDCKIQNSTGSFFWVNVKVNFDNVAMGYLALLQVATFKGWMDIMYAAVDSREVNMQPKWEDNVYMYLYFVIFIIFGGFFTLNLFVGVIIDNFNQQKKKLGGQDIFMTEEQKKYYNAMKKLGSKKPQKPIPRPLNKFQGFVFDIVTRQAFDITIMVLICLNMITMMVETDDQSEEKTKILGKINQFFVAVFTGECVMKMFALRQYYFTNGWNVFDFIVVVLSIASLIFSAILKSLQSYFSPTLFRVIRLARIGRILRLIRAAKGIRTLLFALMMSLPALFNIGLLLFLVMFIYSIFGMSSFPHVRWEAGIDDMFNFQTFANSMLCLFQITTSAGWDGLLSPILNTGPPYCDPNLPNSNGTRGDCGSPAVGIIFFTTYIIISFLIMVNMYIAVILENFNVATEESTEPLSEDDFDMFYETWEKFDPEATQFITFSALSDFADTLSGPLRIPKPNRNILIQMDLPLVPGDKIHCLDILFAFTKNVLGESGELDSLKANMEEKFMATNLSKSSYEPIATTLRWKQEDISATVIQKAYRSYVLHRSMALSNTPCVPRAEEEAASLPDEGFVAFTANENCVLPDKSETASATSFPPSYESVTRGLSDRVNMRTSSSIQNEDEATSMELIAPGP

Compound | pIC50 [1] | pIC50 [2]
CS(=N)(=O)c1cccc(NC(=O)c2cc(C(F)(F)F)cnc2OC2CC3C(C2)C3(F)F)c1 (stereo not drawn) [Compound 1672] | 6.30 to 6.70 | 6.30 to 6.70
NC(=O)c1ccc(NC(=O)c2cc(C(F)(F)F)cnc2OC2CC3C(C2)C3(F)F)cc1 (stereo not drawn) [Compound 1673] | 6.30 to 6.70 | 6.30 to 6.70
CS(=N)(=O)c1cccc(NC(=O)c2cc(C(F)(F)F)cnc2Oc2ccc(C(F)F)nc2)c1 (stereo not drawn) [Compound 1674] | 6.30 to 6.70 | 6.30 to 6.70
NC(=O)c1cccc(NC(=O)c2cc(C(F)(F)F)cnc2Oc2ccc(C(F)F)nc2)c1 [Compound 1675] | 6.30 to 6.70 | 6.30 to 6.70
NC(=O)c1ccc(NC(=O)c2cc(C(F)(F)F)cnc2Oc2ccc(C(F)F)nc2)cc1 [Compound 1676] | 6.30 to 6.70 | 6.30 to 6.70
NC(=O)c1cccc(NC(=O)c2cc(C(F)(F)F)cnc2OC2CC3C(C2)C3(F)F)c1 (stereo not drawn) [Compound 1677] | 6.30 to 6.70 | 6.30 to 6.70
COC(=O)C12CC(NC(=O)c3cc(C(F)(F)F)cnc3Oc3ccc(C#N)cc3OC)(C1)C2 [Compound 1678] | 6.30 to 6.70 | 6.30 to 6.70
COC(=O)C12CC(NC(=O)c3cc(C(F)(F)F)cnc3Oc3ccc(F)c(F)c3OC)(C1)C2 [Compound 1679] | 6.30 to 6.70 | 6.30 to 6.70
CC(C#N)Oc1cc(F)c(Oc2ncc(C(F)(F)F)cc2C(=O)Nc2cccc(C(N)=O)c2)cc1F (stereo not drawn) [Compound 1687] | 6.30 to 6.70 | 6.30 to 6.70
CC(C#N)Oc1cc(F)c(Oc2ncc(C(F)(F)F)cc2C(=O)Nc2ccc(C(N)=O)cc2)cc1F (stereo not drawn) [Compound 1688] | 6.30 to 6.70 | 6.30 to 6.70
Cc1cc(C#N)ncc1Oc1ncc(C(F)(F)F)cc1C(=O)Nc1cccc(S(C)(=O)=O)c1 [Compound 1694] | 6.30 to 6.70 | 6.30 to 6.70
NC(=O)c1cccc(NC(=O)c2cc(C(F)(F)F)cnc2Oc2cnc(C(F)(F)F)nc2)c1 [Compound 1695] | 6.30 to 6.70 | 6.30 to 6.70
CS(=N)(=O)c1cccc(NC(=O)c2cc(C(F)(F)F)cnc2Oc2cnc(C(F)(F)F)nc2)c1 (stereo not drawn) [Compound 1696] | 6.30 to 6.70 | 6.30 to 6.70
COc1ncc(Oc2ncc(C(F)(F)F)cc2C(=O)Nc2cccc(C(N)=O)c2)cc1F [Compound 1698] | 6.30 to 6.70 | 6.30 to 6.70
COc1ncc(Oc2ncc(C(F)(F)F)cc2C(=O)Nc2cccc(S(C)(=N)=O)c2)cc1F (stereo not drawn) [Compound 1699] | 6.30 to 6.70 | 6.30 to 6.70
Cc1nc(C#N)ccc1Oc1ncc(C(F)(F)F)cc1C(=O)Nc1cccc(C(N)=O)c1 [Compound 1700] | 6.30 to 6.70 | 6.30 to 6.70
COc1cc(C#N)ccc1Oc1ncc(C(F)(F)F)cc1C(=O)Nc1ccc[n+]([O-])c1 [Compound 1702] | 6.70 to 7.40 | 6.70 to 7.40
CS(=O)(=O)c1cccc(NC(=O)c2cc(C(F)(F)F)cnc2Oc2ccc(C#N)nc2)c1 [Compound 1703] | 6.30 to 6.70 | 6.30 to 6.70
CC(C)Oc1ccc(Oc2ncc(C(F)(F)F)cc2C(=O)Nc2cccc(S(C)(=N)=O)c2)c(F)c1 (stereo not drawn) [Compound 1706] | 6.30 to 6.70 | 6.30 to 6.70
CC(C)Oc1ccc(Oc2ncc(C(F)(F)F)cc2C(=O)Nc2cccc(C(N)=O)c2)c(F)c1 [Compound 1708] | 6.30 to 6.70 | 6.30 to 6.70
CC(C)Oc1ccc(Oc2ncc(C(F)(F)F)cc2C(=O)Nc2ccc(C(N)=O)cc2)c(F)c1 [Compound 1710] | 6.30 to 6.70 | 6.30 to 6.70
CS(=O)(=O)c1cccc(NC(=O)c2cc(C(F)(F)F)cnc2Oc2cccc(S(C)(=O)=O)c2)c1 [Compound 1718, 2-(3-methylsulfonylphenoxy)-N-(3-methylsulfonylphenyl)-5-(trifluoromethyl)pyridine-3-carboxamide] | 6.30 to 6.70 | 6.30 to 6.70
COc1cc(C#N)ccc1Oc1ncc(C(F)(F)F)cc1C(=O)NC12CC(C(N)=O)(C1)C2 [Compound 1721, N-(3-carbamoyl-1-bicyclo[1.1.1]pentanyl)-2-(4-cyano-2-methoxy-phenoxy)-5-(trifluoromethyl)pyridine-3-carboxamide] | 6.30 to 6.70 | 6.30 to 6.70
COc1c(Oc2ncc(C(F)(F)F)cc2C(=O)NC23CC(C(N)=O)(C2)C3)ccc(F)c1F [Compound 1722, N-(3-carbamoyl-1-bicyclo[1.1.1]pentanyl)-2-(3,4-difluoro-2-methoxy-phenoxy)-5-(trifluoromethyl)pyridine-3-carboxamide] | 6.30 to 6.70 | 6.30 to 6.70
COc1c(Oc2ncc(C#N)cc2C(=O)Nc2cccc(C(N)=O)c2)ccc(F)c1F [Compound 1724, N-(3-carbamoylphenyl)-5-cyano-2-(3,4-difluoro-2-methoxy-phenoxy)pyridine-3-carboxamide] | 6.70 to 7.40 | 6.70 to 7.40
COc1cc(C#N)ccc1Oc1ncc(C23CCOCC2C3)cc1C(=O)Nc1cccc(S(C)(=N)=O)c1 (stereo not drawn) [Compound 1725, 2-(4-cyano-2-methoxy-phenoxy)-N-[3-(methylsulfonimidoyl)phenyl]-5-(3-oxabicyclo[4.1.0]heptan-6-yl)pyridine-3-carboxamide] | 6.30 to 6.70 | 6.30 to 6.70

Other lines, results leading:

pIC50 [1] | pIC50 [2] | Compound
6.70 to 7.40 | 6.70 to 7.40 | Cc1nc(OC2CCC2)ccc1Oc1ncc(C(F)(F)F)cc1C(=O)Nc1cccc(S(C)(=N)=O)c1 (stereo not drawn) [Compound 1669]
7.40 to 7.70 | 7.40 to 7.70 | COc1c(Oc2ncc(Br)cc2C(=O)Nc2cccc(C(N)=O)c2)ccc(F)c1F [Compound 1680]
≥ 7.70 | 7.40 to 7.70 | COc1c(Oc2ncc(Br)cc2C(=O)Nc2ccnnc2)ccc(F)c1F [Compound 1683]
≥ 7.70 | ≥ 7.70 | Cc1nc(Br)ccc1Oc1ncc(C(F)(F)F)cc1C(=O)Nc1cccc(S(C)(=N)=O)c1 (stereo not drawn) [Compound 1684]
≥ 7.70 | ≥ 7.70 | COc1nc(Br)ccc1Oc1ncc(C(F)(F)F)cc1C(=O)Nc1cccc(S(C)(=N)=O)c1 (stereo not drawn) [Compound 1685]
≥ 7.70 | ≥ 7.70 | COc1cc(C#N)ccc1Oc1ncc(Br)cc1C(=O)Nc1cccc(S(C)(=N)=O)c1 (stereo not drawn) [Compound 1686]
6.70 to 7.40 | 6.70 to 7.40 | CC(C#N)Oc1cc(F)c(Oc2ncc(C(F)(F)F)cc2C(=O)Nc2cccc(S(C)(=N)=O)c2)cc1F (stereo not drawn) [Compound 1689]
≥ 7.70 | ≥ 7.70 | Cc1ccc(Oc2ncc(C(F)(F)F)cc2C(=O)Nc2cccc(S(C)(=N)=O)c2)c(OC(F)F)n1 (stereo not drawn) [Compound 1690]
6.70 to 7.40 | 6.70 to 7.40 | Cc1ccc(Oc2ncc(C(F)(F)F)cc2C(=O)Nc2cccc(C(N)=O)c2)c(OC(F)F)n1 [Compound 1691]
6.70 to 7.40 | 6.70 to 7.40 | N#Cc1cc(F)ccc1Oc1ncc(C(F)(F)F)cc1C(=O)Nc1cccc(C(N)=O)c1 [Compound 1692]
≥ 7.70 | ≥ 7.70 | Cc1nc(C#N)ccc1Oc1ncc(C(F)(F)F)cc1C(=O)Nc1cccc(S(C)(=O)=O)c1 [Compound 1693]
7.40 to 7.70 | 7.40 to 7.70 | Cc1c(C#N)ccc(Oc2ncc(C(F)(F)F)cc2C(=O)Nc2cccc(C(N)=O)c2)c1F [Compound 1697]
7.40 to 7.70 | 7.40 to 7.70 | Cc1nc(C#N)ccc1Oc1ncc(C(F)(F)F)cc1C(=O)Nc1cccc(S(C)(=N)=O)c1 (stereo not drawn) [Compound 1701]
≥ 7.70 | ≥ 7.70 | CC(C)Oc1ccc(Oc2ncc(C(F)(F)F)cc2C(=O)Nc2cccc(S(C)(=N)=O)c2)c(F)c1F (stereo not drawn) [Compound 1707]
7.40 to 7.70 | ≥ 7.70 | CC(C)Oc1ccc(Oc2ncc(C(F)(F)F)cc2C(=O)Nc2cccc(C(N)=O)c2)c(F)c1F [Compound 1709]
7.40 to 7.70 | 7.40 to 7.70 | CC(C)Oc1ccc(Oc2ncc(C(F)(F)F)cc2C(=O)Nc2ccc(C(N)=O)cc2)c(F)c1F [Compound 1711]
≥ 7.70 | ≥ 7.70 | Cc1c(Oc2ncc(C(F)(F)F)cc2C(=O)Nc2cccc(S(C)(=N)=O)c2)ccc(OC(F)(F)F)c1F (stereo not drawn) [Compound 1712]
≥ 7.70 | ≥ 7.70 | CC(=O)N=[S@](C)(=O)c1cccc(NC(=O)c2cc(C(F)(F)F)cnc2Oc2ccc(F)cc2C)c1 [Compound 1716, N-[3-(N-acetyl-S-methyl-sulfonimidoyl)phenyl]-2-(4-fluoro-2-methyl-phenoxy)-5-(trifluoromethyl)pyridine-3-carboxamide]
≥ 7.70 | ≥ 7.70 | CN=S(C)(=O)c1cccc(NC(=O)c2cc(C(F)(F)F)cnc2Oc2ccc(F)cc2C)c1 (stereo not drawn) [Compound 1717, N-[3-(N,S-dimethylsulfonimidoyl)phenyl]-2-(4-fluoro-2-methyl-phenoxy)-5-(trifluoromethyl)pyridine-3-carboxamide]
≥ 7.70 | ≥ 7.70 | Cc1cc(F)ccc1Oc1ncc(C(F)(F)F)cc1C(=O)Nc1cccc([S@@](C)(=O)=NC(=O)CN(C)C(=O)OC(C)(C)C)c1 [Compound 1719, tert-butyl (R)-(2-(((3-(2-(4-fluoro-2-methylphenoxy)-5-(trifluoromethyl)nicotinamido)phenyl)(methyl)(oxo)-λ^6-sulfaneylidene)amino)-2-oxoethyl)(methyl)carbamate]
≥ 7.70 | ≥ 7.70 | CNCC(=O)N=[S@](C)(=O)c1cccc(NC(=O)c2cc(C(F)(F)F)cnc2Oc2ccc(F)cc2C)c1 [Compound 1720, (R)-2-(4-fluoro-2-methylphenoxy)-N-(3-(S-methyl-N-(methylglycyl)sulfonimidoyl)phenyl)-5-(trifluoromethyl)nicotinamide]
7.40 to 7.70 | 7.40 to 7.70 | COc1c(Oc2ncc(C#N)cc2C(=O)Nc2cccc(S(C)(=N)=O)c2)ccc(F)c1F (stereo not drawn) [Compound 1723, 5-cyano-2-(3,4-difluoro-2-methoxy-phenoxy)-N-[3 (methylsulfonimidoyl)phenyl]pyridine-3-carboxamide]
